Measured values from patent publication US12612407B2, “Imidazo[2,1-f][1,2,4]triazin-4-amine derivatives as TLR7 agonist” (BEIGENE, LTD., priority 2020, dated 2026).

target: T1, human TLR7 (Homo sapiens, UniProt Q9NYK1); assay: HEK293-Blue hTLR7 Reporter Assay (QUANTI-BLUE, SEAP readout); format: cell-based; details: HEK-Blue-hTLR7 cells, 24 hrs treatment, Table 1, B1-B232
T1 construct: host or cells: HEK293 (HEK-Blue hTLR7)
T1 sequence (Q9NYK1 27-1049): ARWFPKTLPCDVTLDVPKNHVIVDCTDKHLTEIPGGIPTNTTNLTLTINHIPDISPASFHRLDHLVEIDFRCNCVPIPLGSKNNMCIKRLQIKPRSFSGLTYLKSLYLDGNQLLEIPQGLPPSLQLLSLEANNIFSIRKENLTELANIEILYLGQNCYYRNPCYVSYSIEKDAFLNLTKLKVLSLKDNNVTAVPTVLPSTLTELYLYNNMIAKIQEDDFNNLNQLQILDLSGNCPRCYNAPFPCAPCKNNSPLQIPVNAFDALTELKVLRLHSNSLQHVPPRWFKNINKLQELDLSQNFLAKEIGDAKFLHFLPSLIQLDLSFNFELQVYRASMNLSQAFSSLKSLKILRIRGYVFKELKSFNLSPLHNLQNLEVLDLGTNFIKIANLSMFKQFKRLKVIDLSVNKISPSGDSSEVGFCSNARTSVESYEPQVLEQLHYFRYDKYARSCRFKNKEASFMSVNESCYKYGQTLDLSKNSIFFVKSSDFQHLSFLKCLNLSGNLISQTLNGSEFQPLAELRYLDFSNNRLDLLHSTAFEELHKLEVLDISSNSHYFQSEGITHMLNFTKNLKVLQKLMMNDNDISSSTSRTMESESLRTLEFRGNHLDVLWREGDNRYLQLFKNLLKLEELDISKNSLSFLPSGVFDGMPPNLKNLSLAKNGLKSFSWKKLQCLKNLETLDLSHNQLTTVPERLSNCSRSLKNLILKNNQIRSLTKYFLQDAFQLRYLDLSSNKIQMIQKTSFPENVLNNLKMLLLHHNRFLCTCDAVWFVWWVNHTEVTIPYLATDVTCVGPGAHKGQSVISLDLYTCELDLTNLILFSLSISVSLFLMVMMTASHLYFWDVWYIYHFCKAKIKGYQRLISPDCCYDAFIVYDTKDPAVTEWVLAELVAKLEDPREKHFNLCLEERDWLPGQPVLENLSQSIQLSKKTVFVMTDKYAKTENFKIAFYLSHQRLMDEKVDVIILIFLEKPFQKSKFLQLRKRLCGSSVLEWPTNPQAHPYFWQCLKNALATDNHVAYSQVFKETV
Description: HEK293-Blue hTLR7 Reporter Assay: HEK-Blue-hTLR7 cell line (Invivogen, Cat. No. hkb-htlr7) was designed so that the expression of the secreted embryonic alkaline phosphatase (SEAP) was induced by activating NF-κ and AP-1 via stimulating human TLR7 with TLR7 agonists. HEK-Blue-hTLR7 cells were seeded at a density of 4×10^4 cells/well in a volume of 180 μL in a 96-well plate in DMEM (Cat. No. 11965-092) supplemented with 10% (v/v) heat-inactivated fetal bovine serum (FBS) (Gibco, 10099-1441), 100 U/ml penicillin and 100 μg/ml streptomycin (Gibco, 15140122) containing 50 U/mL penicillin, […] and 10% (v/v) heat-inactivated fetal bovine serum. The cells were settled for 5 hrs, then treated with increasing amounts of tested compounds at 37° C. for 24 hrs. Then 20 μL of the supernatant from each well was incubated with 180 μL Quanti-blue substrate solution at 37° C. for 10-30 mins before the activity of the SEAP was determined at 620-655 nm using a spectrophotometer. The EC50 value for each compound was calculated with GraphPad Prism software using the sigmoidal dose-response function.

Compound	EC50 [nM]
1-((4-amino-7-((5-methyl-6-(piperazin-1-yl)pyridin-3-yl)methyl)imidazo[2,1-f][1,2,4]triazin-2-yl)oxy)hexan-3-ol [Compound B157]	667
2-butoxy-7-((5-(piperidin-4-yl)pyridin-2-yl)methyl)imidazo[2,1-f][1,2,4]triazin-4-amine [Compound B77]	311
2-butoxy-7-((5-methyl-6-(2,7-diazaspiro[3.5]nonan-7-yl)pyridin-3-yl)methyl)imidazo[2,1-f][1,2,4]triazin-4-amine [Compound B86]	202
2-butoxy-7-((6-(4-ethylpiperazin-1-yl)-5-methylpyridin-3-yl)methyl)imidazo[2,1-f][1,2,4]triazin-4-amine [Compound B115]	190
2-butoxy-7-((6-(piperidin-4-yl)-5-(trifluoromethyl)pyridin-3-yl)methyl)imidazo[2,1-f][1,2,4]triazin-4-amine [Compound B28]	302
2-butyl-7-((5-methyl-6-(piperazin-1-yl)pyridin-3-yl)methyl)imidazo[2,1-f][1,2,4]triazine-2,4-diamine [Compound B13]	48
CCC[C@H](C)Nc1nc(N)c2ncc(Cc3cnc(N4CCNCC4)c(C)c3)n2n1 (single isomer, unassigned) [Compound B148]	6.5
CCC[C@H](C)Nc1nc(N)c2ncc(Cc3cnc(N4CCC(N(C)C)CC4)c(C)c3)n2n1 (single isomer, unassigned) [Compound B173]	2.3
CCC[C@@H](C)Nc1nc(N)c2ncc(Cc3cnc(N4CCC(CN(C)C)CC4)c(C)c3)n2n1 (single isomer, unassigned) [Compound B178]	17
CCC[C@@H](C)Nc1nc(N)c2ncc(Cc3cnc(N4CCC(N(C)C)CC4)c(C)c3)n2n1 (single isomer, unassigned) [Compound B185]	25
CCC[C@@H](C)Nc1nc(N)c2ncc(Cc3cnc(N4CCNCC4)c(C)c3)n2n1 (single isomer, unassigned) [Compound B207]	56
CCC[C@@H](C)Nc1nc(N)c2ncc(Cc3cnc(N4CCC(CNC)CC4)c(C)c3)n2n1 (single isomer, unassigned) [Compound B214]	23
CCC[C@H](C)Oc1nc(N)c2ncc(Cc3cnc(N4CCC(CNC)CC4)c(C)c3)n2n1 (single isomer, unassigned) [Compound B221]	3.9
CCC[C@@H](C)Oc1nc(N)c2ncc(Cc3cnc(N4CCC(CNC)CC4)c(C)c3)n2n1 (single isomer, unassigned) [Compound B222]	60
CCC[C@H](CC)Oc1nc(N)c2ncc(Cc3cnc(N4CCNCC4)c(C)c3)n2n1 (single isomer, unassigned) [Compound B224]	5.1
CCC[C@@H](CC)Oc1nc(N)c2ncc(Cc3cnc(N4CCNCC4)c(C)c3)n2n1 (single isomer, unassigned) [Compound B225]	26

Compound	EC50 [nM]
CCCCOc1nc(N)c2ncc(Cc3cnc(N4CCN(C)CC4)c(Cl)c3)n2n1 [Compound B1, 2-butoxy-7-((5-chloro-6-(4-methylpiperazin-1-yl)pyridin-3-yl)methyl)imidazo[2,1-f][1,2,4]triazin-4-amine]	501
CCCCOc1nc(N)c2ncc(Cc3cnc(N4CCNCC4)c(Cl)c3)n2n1 [Compound B2, 2-butoxy-7-((5-chloro-6-(piperazin-1-yl)pyridin-3-yl)methyl)imidazo[2,1-f][1,2,4]triazin-4-amine]	434
CCCCOc1nc(N)c2ncc(Cc3ccc(C4CCNCC4)cc3)n2n1 [Compound B3, 2-butoxy-7-(4-(piperidin-4-yl)benzyl)imidazo[2,1-f][1,2,4]triazin-4-amine]	327
C=CC(=O)N1CCN(c2ncc(Cc3cnc4c(N)nc(OCCCC)nn34)cc2Cl)CC1 [Compound B4, 1-(4-(5-((4-amino-2-butoxyimidazo[2,1-f][1,2,4]triazin-7-yl)methyl)-3-chloropyridin-2-yl)piperazin-1-yl)prop-2-en-1-one]	> 10000
COCCOc1nc(N)c2ncc(Cc3cnc(N4CCNCC4)c(Cl)c3)n2n1 [Compound B5, 7-((5-chloro-6-(piperazin-1-yl)pyridin-3-yl)methyl)-2-(2-methoxyethoxy)imidazo[2,1-f][1,2,4]triazin-4-amine]	1230
CCCCOc1nc(N)c2ncc(Cc3ccc(N4CCNCC4)nc3)n2n1 [Compound B6, 2-butoxy-7-((6-(piperazin-1-yl)pyridin-3-yl)methyl)imidazo[2,1-f][1,2,4]triazin-4-amine]	421
CCCCOc1nc(N)c2ncc(Cc3cnc(N4CCNCC4)cc3Cl)n2n1 [Compound B7, 2-butoxy-7-((4-chloro-6-(piperazin-1-yl)pyridin-3-yl)methyl)imidazo[2,1-f][1,2,4]triazin-4-amine]	2380
CCCCOc1nc(N)c2ncc(Cc3cnc(N4CCNCC4)c(C)c3)n2n1 [Compound B8, 2-butoxy-7-((5-methyl-6-(piperazin-1-yl)pyridin-3-yl)methyl)imidazo[2,1-f][1,2,4]triazin-4-amine]	136
CCCCOc1nc(N)c2ncc(Cc3cnc(N4CCNCC4)c(F)c3)n2n1 [Compound B9, 2-butoxy-7-((5-fluoro-6-(piperazin-1-yl)pyridin-3-yl)methyl)imidazo[2,1-f][1,2,4]triazin-4-amine]	345
CCCCOc1nc(N)c2ncc(Cc3cnc(N4CCNCC4)c(C(F)(F)F)c3)n2n1 [Compound B10, 2-butoxy-7-((6-(piperazin-1-yl)-5-(trifluoromethyl)pyridin-3-yl)methyl)imidazo[2,1-f][1,2,4]triazin-4-amine]	417
CCCCOc1nc(N)c2ncc(Cc3cnc(N4CCNCC4)c(OC)c3)n2n1 [Compound B11, 2-butoxy-7-((5-methoxy-6-(piperazin-1-yl)pyridin-3-yl)methyl)imidazo[2,1-f][1,2,4]triazin-4-amine]	247
CCCCOc1nc(N)c2ncc(Cc3cnc(N4CCN(C(=O)CN(C)C)CC4)c(C)c3)n2n1 [Compound B12, 1-(4-(5-((4-amino-2-butoxyimidazo[2,1-f][1,2,4]triazin-7-yl)methyl)-3-methylpyridin-2-yl)piperazin-1-yl)-2-(dimethylamino)ethan-1-one]	44
CCCCOc1nc(N)c2ncc(Cc3ccc(C4CCN(C(=O)CN(C)C)CC4)cc3)n2n1 [Compound B14, 1-(4-(4-((4-amino-2-butoxyimidazo[2,1-f][1,2,4]triazin-7-yl)methyl)phenyl)piperidin-1-yl)-2-(dimethylamino)ethan-1-one]	96
CCCCOc1nc(N)c2ncc(Cc3ccc(C4CCNCC4)cn3)n2n1 [Compound B15, 2-butoxy-7-((5-(piperidin-4-yl)pyridin-2-yl)methyl)imidazo[2,1-f][1,2,4]triazin-4-amine]	509
CCCCOc1nc(N)c2ncc(Cc3ccc(N4CCNCC4)cn3)n2n1 [Compound B16, 2-butoxy-7-((5-(piperazin-1-yl)pyridin-2-yl)methyl)imidazo[2,1-f][1,2,4]triazin-4-amine]	1440

same assay, conditions: HEK-Blue-hTLR7 cells, Table 2, C1-C6

Compound	EC50 [nM]
6-propoxy-3-(4-(pyrrolidin-1-ylmethyl)benzyl)imidazo[1,2-b]pyridazin-8-amine [Compound C4]	> 10000
